Experiments:
[1] = system: Aspirin induced gastric ulcer; assay: Aspirin induced gastric ulcer model; type: in vivo, rats
Description: Gastric ulceration was induced by aspirin according to the method of Djahanguiri (1969). Aspirin (150 mg/Kg.) was administered per orally as a suspension in gum-acacia and the animal was sacrificed 5 hr. after the aspirin treatment and the ulcer index with protection index were calculated.

[2] = system: Cold Restraint Ulcer (CRU); assay: Cold Restraint Ulcers (CRU) model; type: in vivo, rats
Description: Adult rats of either sex, weighing 150-175 grams are fasted for 24 hours in metallic cages with raised mesh bottoms to prevent coprophagia and were allowed free access to water. The test drugs were administered 45 minutes before immobilizing the animals. The rats were immobilized in the restraint cage and kept at 4° C. in BOD incubator for 2 hours (According to the method of Senay and Levine 1967). The animals were sacrificed immediately after the restraint period. The abdomen was cut opened; stomach was taken out and incised along the greater curvature to observe the gastric lesions with the help of Magnascope (5× magnification)
The following arbitrary scoring system was used to grade the severity and intensity of the lesions:
1. Shedding of epithelium=10
2. Petechial and frank hemorrhages=20
4. More than two ulcers=40
The presence of any of these lesions was considered as a positive ulcerogenic response which has been shown as percentage of rats showing gastric lesions. The severity of ulcers is expressed in terms of ulcer index, which is the mean score of gastric lesions of all the rats in a group. The term Ulcer Index is defined as:
Ulcer Index (U.I.)=Us+Up×10^−1
where Us=Mean severity of ulcer score and
Up=Percentage of animals with Ulcer incidences
The percentage protection is calculated as follows:
Percentage protection=(C−T/C)×100.
where C=Number of animals showing ulcer response in control group and
T=Number of animals showing ulcer response in test group.

[3] = system: pyloric ligation induced ulcer; assay: Pyloric ligation induced ulcer model; type: in vivo, rats
Description: 1. Animals were fasted for 24 hours in the raised mesh bottom cages to prevent coprophagia and were allowed free access to water. 2. The control group of rats was feed with the vehicle and the experimental groups with their respective drugs 45 minutes prior to the ligation. 3. The animal was anesthetized, abdomen was cut opened under xiphoid process, and the pyloric portion of the stomach was slightly lifted and ligated avoiding any damage to the adjacent blood vessels (According to the method of Shay et al. 1945). 4. The animals were stitched and kept for 4 hours with free access to water. 5. After 4 hours the animals were sacrificed under ether anesthesia and the stomach was dissected out incised along the greater curvature. 6. The stomach was washed thoroughly and the ulcer index was scored as per in other ulcer models.

[4] = system: histamine induced duodenal ulcer; assay: Histamine induced duodenal ulcer model; type: in vivo, Guinea pig
Description: 1. Animals were fasted for 24 hours with access to water.
2. The drug was given orally 1 hour prior to the histamine administration.
3. Histamine was administered in a dose of 0.25 mg/Kg, i.m. at 30 minutes interval for 7 times and it induced 100% duodenal ulceration in guinea pig (According to the method of Watt and Eagleton 1964).
4. The animals were sacrificed after half an hour of last injection under ether anesthesia.
5. The stomach along with duodenum were removed washed thoroughly and examined for the lesions. Ulcer index and protection index were calculated.

[5] = system: Alcohol induced gastric ulcers; assay: Alcohol (ethanol) induced gastric ulcers in rats; type: in vivo
Description: 1. Adult rats of either sex were taken; weighing 150-175 grams were fasted for 24 hours with free access to water.
2. The test drugs were administered (p.o.) 45 minutes before alcohol administration.
3.1 ml of chilled absolute alcohol was administered (p.o.) to the rats (According to the Wittetal).
4. Immediately after 1 hour, the animals were anesthetized, abdomen was cut opened stomach was taken out and incised along the greater curvature to observe the gastric lesions.
The ulcers are examined under the 5× magnification with the help of magnascope.
Absolute ethanol lesions appears as blackish lesions grouped in patches of varying size, usually parallel to the major axis of the stomach.
5. The lengths of the lesions are measured and summated to give a total lesion score, then calculated and expressed in percentage.

[6] = Aspirin 150 mg/Kg p.o., 20 mg/Kg

`COc1ccc2[nH]c([S+]([O-])Cc3ncc(C)c(OC)c3C)nc2c1` (centres unmarked) [Omeprazole] was tested, and the “Mean severity of ulcer score” value [1, 6] was 6.6, the “Percentage of ulcer incidence (No. of rats showing ulcer/total No. of rats used)” value [1, 6] was 50 (3/6) % and the Ulcer index [1, 6] was 5.66. The “Ulcer severity score 10 (Shedding of epithelium), No. of rats showing lesions/No. of rats tested” value [1, 6] was 2/6, the “Ulcer severity score 20 (Petechial and frank hemorrhages), No. of rats showing lesions/No. of rats tested” value [1, 6] was 1/6 and the Protection index ([1]; Aspirin 150 mg/Kg p.o., 20 mg/Kg, versus aspirin control) was 54.81. For the same molecule, the “Percentage protection in respect to the protection of Omeprazole” value (shortened to “Percentage protection”) ([1]; aspirin induced ulcer, 10 mg/Kg, standard taken as 100%) was 100%, the “Mean severity of ulcer score” value ([2]; 10 mg/Kg p.o.) was 07 and the “Percentage of ulcer incidence (No. of rats showing ulcer/total No. of rats used)” value ([2]; 10 mg/Kg p.o.) was 50 (5/10) %. For the same molecule, the Ulcer index ([2]; 10 mg/Kg p.o.) was 5.7, the “Ulcer severity score 10 (Shedding of epithelium), No. of rats showing lesions/No. of rats tested” value ([2]; 10 mg/Kg p.o.) was 3/10 and the “Ulcer severity score 20 (Petechial and frank hemorrhages), No. of rats showing lesions/No. of rats tested” value ([2]; 10 mg/Kg p.o.) was 2/10. The Protection index ([2]; 10 mg/Kg p.o., versus CRU control) was 54.03, the “Percentage protection” value ([2]; 10 mg/Kg, standard taken as 100%) was 100% and the “Ulcer index” value ([3]; Ligation, 10 mg/Kg p.o.) was 6.6. The “Protection index” value ([3]; Ligation, 10 mg/Kg p.o., versus ligation control) was 51.44, the “Percentage protection” value ([3]; pyloric ligation induced ulcer, Omeprazole taken as 100%) was 100% and the “Mean severity of ulcer score” value ([4]; Histamine i.m., 10 mg/Kg p.o.) was 6.66. The “Percentage of ulcer incidence (No. of animals showing ulcer/total No. of animals used)” value ([4]; Histamine i.m., 10 mg/Kg p.o.) was 33.33 (1/3) %, the Ulcer index ([4]; Histamine i.m., 10 mg/Kg p.o.) was 3.99 and the “Ulcer severity score 20, No. Guinea pig showing lesions/No. Guinea pig tested” value ([4]; Histamine i.m., 10 mg/Kg p.o.) was 1/3. The “Volume of gastric fluid” value ([4]; Histamine i.m., 10 mg/Kg p.o.) was 1.0 ± 0.2 mL, the “% Protection” value ([4]; Histamine i.m., 10 mg/Kg p.o., versus ulcer control) was 70.79% and the “Percentage protection” value ([4]; histamine induced duodenal ulcer, Omeprazole taken as 100%) was 100%. For the same molecule, the “Length of hemorrhagic bands (mm ± SE)” value ([5]; 100 mg/Kg p.o. + Ethanol) was 56.0 ± 9.12 mm and the “Percentage protection” value ([5]; Alcohol induced ulcer, omeprazole taken as 100%) was 100.0%.
